We go through seven molecules from publication PMC7308192 (Journal of biomolecular structure & dynamics, 2019).

Several values for one entry are separate records, joined by “and”; a condition that tells them apart may be missing. Equal values may be shown once. Read-outs that look alike come from different tables or passages of the source.

Sequences and labels used below:
B3: XLG2 C terminal Gα domain (residues from 435 to 861) (domain or fragment, Arabidopsis, UniProt C6KIE6 435-861, looked up)
chain: CAVFSLPVPPASSAVEPYDVPLYEQKMLNKLLLIGSEKGGATTIYKQARSLYNVSFSLEDRERIKFIIQTNLYTYLAMVLEAHERFEKEMSNDQSSGNVGDETSAKPGNSINPRLKHFSDWVLKEKEDGNLKIFPPSSRENAQTVADLWRVPAIQATYKRLRDTLPRNAVYFLERILEISRSEYDPSDMDILQAEGLSSMEGLSCVDFSFPSTSQEESLESDYQHDTDMKYQLIRLNPRSLGENWKLLEMFEDADLVIFCVSLTDYAENIEDGEGNIVNKMLATKQLFENMVTHPSLANKRFLLVLTKFDLLEEKIEEVPLRTCEWFEDFNPLISQNQTSRHNPPMAQRAFHYIGYKFKRLYDSILEPVNMRGRSFKPKLFVCQVSLESDTVDNALRYAREILKWHVEETSMFQEMSTTSIEASSSS
B4: Twinstrep-AtGPA1 (natural protein, Arabidopsis, UniProt P18064 1-383, looked up)
chain: MGLLCSRSRHHTEDTDENTQAAEIERRIEQEAKAEKHIRKLLLLGAGESGKSTIFKQIKLLFQTGFDEGELKSYVPVIHANVYQTIKLLHDGTKEFAQNETDSAKYMLSSESIAIGEKLSEIGGRLDYPRLTKDIAEGIETLWKDPAIQETCARGNELQVPDCTKYLMENLKRLSDINYIPTKEDVLYARVRTTGVVEIQFSPVGENKKSGEVYRLFDVGGQRNERRKWIHLFEGVTAVIFCAAISEYDQTLFEDEQKNRMMETKELFDWVLKQPCFEKTSFMLFLNKFDIFEKKVLDVPLNVCEWFRDYQPVSSGKQEIEHAYEFVKKKFEELYYQNTAPDRVDRVFKIYRTTALDQKLVKKTFKLVDETLRRRNLLEAGLL

Assay [1] addresses T1, AtGPA1 (Arabidopsis thaliana, UniProt P18064).
T1 sequence (P18064 1-383): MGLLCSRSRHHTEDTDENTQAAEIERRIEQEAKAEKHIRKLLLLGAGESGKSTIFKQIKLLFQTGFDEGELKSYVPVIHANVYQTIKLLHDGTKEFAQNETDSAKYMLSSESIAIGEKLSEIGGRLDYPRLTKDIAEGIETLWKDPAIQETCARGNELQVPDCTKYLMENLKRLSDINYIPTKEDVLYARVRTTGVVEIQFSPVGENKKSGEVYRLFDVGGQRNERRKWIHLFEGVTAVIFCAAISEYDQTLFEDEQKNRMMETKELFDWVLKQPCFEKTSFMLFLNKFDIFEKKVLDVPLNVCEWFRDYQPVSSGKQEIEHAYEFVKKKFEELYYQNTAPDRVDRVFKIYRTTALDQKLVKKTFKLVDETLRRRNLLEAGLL
The assay can be described thus: Microscale thermophoresis. In kind it is binding.

In assay [2] the target is T2, XLG2 (Arabidopsis thaliana, UniProt C6KIE6).
T2 sequence (C6KIE6 435-861): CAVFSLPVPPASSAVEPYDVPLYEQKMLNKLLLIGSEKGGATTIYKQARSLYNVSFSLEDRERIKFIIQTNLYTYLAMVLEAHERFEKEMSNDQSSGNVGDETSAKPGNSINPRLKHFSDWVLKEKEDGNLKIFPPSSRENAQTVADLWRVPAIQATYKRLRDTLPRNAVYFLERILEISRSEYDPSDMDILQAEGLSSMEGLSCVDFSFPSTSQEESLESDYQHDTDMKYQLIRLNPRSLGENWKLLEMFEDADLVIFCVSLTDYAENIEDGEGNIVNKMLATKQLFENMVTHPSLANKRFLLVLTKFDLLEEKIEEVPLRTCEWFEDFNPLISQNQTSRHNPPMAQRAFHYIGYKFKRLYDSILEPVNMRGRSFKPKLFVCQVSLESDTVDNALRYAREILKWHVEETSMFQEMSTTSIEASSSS
The assay can be described thus: Microscale thermophoresis. It counts as binding.

Assay [3] addresses T1, AtGPA1. The following applies: read-out: Kd for GTPγS binding to AtGPA1 using a radioactive ligand, ref Johnston, Willard, Kimple, Siderovski, 2008; cited from earlier work. (In general: GTPγS resists hydrolysis and so accumulates on activated G proteins.)
Assay [4] deals with animal G subunits. As to conditions: read-out: range of Kds reported for animal G subunits; ref Malinski, Zera, Angleson, & Wensel, 1996; cited from earlier work.
Assay [5] deals with B4. The assay can be described thus: MST.
Assay [6] concerns the target B3. The assay can be described thus: MST.
Assay [7] has as its target B4. The assay can be described thus: MST. The source holds these as a separate data set.
Assay [8] has as its target T3, Arabidopsis Gβγ dimer (AGB1/AGG1) (Arabidopsis, UniProt P49177 1-377; Q9FDX9 1-98).
T3 sequence (looked up) 1: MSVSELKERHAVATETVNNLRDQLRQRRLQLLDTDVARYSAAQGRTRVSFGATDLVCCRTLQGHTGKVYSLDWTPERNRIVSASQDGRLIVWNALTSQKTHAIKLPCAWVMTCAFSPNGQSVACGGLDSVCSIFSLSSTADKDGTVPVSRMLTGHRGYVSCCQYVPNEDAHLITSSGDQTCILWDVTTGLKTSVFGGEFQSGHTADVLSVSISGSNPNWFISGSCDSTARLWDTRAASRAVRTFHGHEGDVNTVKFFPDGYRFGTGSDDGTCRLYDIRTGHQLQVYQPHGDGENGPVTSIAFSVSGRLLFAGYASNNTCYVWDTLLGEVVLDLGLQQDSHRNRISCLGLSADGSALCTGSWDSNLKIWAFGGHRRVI
T3 sequence (looked up) 2: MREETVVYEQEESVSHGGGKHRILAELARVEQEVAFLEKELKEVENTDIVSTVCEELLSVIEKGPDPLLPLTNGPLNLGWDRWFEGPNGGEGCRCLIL
The assay can be described thus: MST.

Setting [9] is: Kd, nucleotide binding to AtGPA1, MST, 25°C, polyHis-tagged AtGPA1.
The mark [10] stands for this setting: Kd, nucleotide binding to XLG2, MST, 25°C, in the presence of Mg2+.
Setting [11] is: Kd, nucleotide binding to XLG2 in the presence of Ca2+, MST, Ca2+ instead of Mg2+.

`Nc1nc2c(ncn2[C@@H]2O[C@H](COP(=O)(O)OP(=O)(O)O)[C@@H](O)[C@H]2O)c(=O)[nH]1` [GDP, guanosine diphosphate]: the figures for the Kd in assay [1] (setting [9]), in assay [2] (setting [10]) and in assay [2] (setting [11]) were 28000 ± 12000 nM, 177000 ± 33000 nM and around 28000 nM, respectively. Besides, the “affinity of XLG2 lower than of AtGPA1” value in assay [2] (Kd XLG2 vs AtGPA1) was ~ 6 fold.
Turning to `Nc1nc2c(ncn2[C@@H]2O[C@H](COP(=O)(O)OP(=O)(O)OP(O)(O)=S)[C@@H](O)[C@H]2O)c(=O)[nH]1` [GTPγS], the Kd in assay [1] (setting [9]) is ~21 nM and 21 nM; in assay [2] (Kd, nucleotide binding to XLG2, MST, 25°C, Mg2+), 2350 ± 460 nM; in assay [2] (setting [10]) it was around 2000 nM; in assay [2] (setting [11]) it was around 186000 nM; in assay [3], around 2 nM; in assay [4], 10 to 100 nM. The “affinity of XLG2 lower than that of AtGPA1 / canonical Gα subunits” value in assay [2] (Kd XLG2 vs AtGPA1, same conditions) was 100 times.

B1: RGS+Ct (AtRGS1, residues from 284 to 459) (domain or fragment, Arabidopsis, UniProt Q8H1F2 284-459, looked up)
chain: KEEFRPVDPNEPLDKLLLNKRFRHSFMEFADSCYAGETLHFFEEVYEHGKIPEDDSIRRIYMARHIMEKFIVAGAEMELNLSHKTRQEILTTQDLTHTDLFKNALNEVMQLIKMNLVRDYWSSIYFIKFKEEESCHEAMHKEGYSFSSPRLSSVQGSDDPFYQEHMSKSSRCSSPG
On to B1, for which the Kd is 67 nM in assay [5], 198 nM in assay [6] and 125 nM in assay [7].

B2: RGS1-C domain: recombinant C-terminal RGS domain of Arabidopsis AtRGS1, residues from 284 to 459 (protein)
chain: KEEFRPVDPNEPLDKLLLNKRFRHSFMEFADSCYAGETLHFFEEVYEHGKIPEDDSIRRIYMARHIMEKFIVAGAEMELNLSHKTRQEILTTQDLTHTDLFKNALNEVMQLIKMNLVRDYWSSIYFIKFKEEESCHEAMHKEGYSFSSPRLSSVQGSDDPFYQEHMSKSSRCSSPG
modifications: left off: His, end not stated, cleaved | GST, end not stated, cleaved
B2: in assay [2] (XLG2 vs AtGPA1 in transition state), the “affinity of XLG2 for RGS domain lower than AtGPA1 in its transition state” value was “about 2 times”.
Molecule B3 had a Kd in assay [8] of 700 nM.
The same measure, in the same setting: under B4 stands 2000 nM.

B5: Gβγ: Arabidopsis Gβγ dimer (AGB1/AGG1), His tagged, expressed in Sf9 cells (protein)
chain 1: MSVSELKERHAVATETVNNLRDQLRQRRLQLLDTDVARYSAAQGRTRVSFGATDLVCCRTLQGHTGKVYSLDWTPERNRIVSASQDGRLIVWNALTSQKTHAIKLPCAWVMTCAFSPNGQSVACGGLDSVCSIFSLSSTADKDGTVPVSRMLTGHRGYVSCCQYVPNEDAHLITSSGDQTCILWDVTTGLKTSVFGGEFQSGHTADVLSVSISGSNPNWFISGSCDSTARLWDTRAASRAVRTFHGHEGDVNTVKFFPDGYRFGTGSDDGTCRLYDIRTGHQLQVYQPHGDGENGPVTSIAFSVSGRLLFAGYASNNTCYVWDTLLGEVVLDLGLQQDSHRNRISCLGLSADGSALCTGSWDSNLKIWAFGGHRRVI
chain 2: MREETVVYEQEESVSHGGGKHRILAELARVEQEVAFLEKELKEVENTDIVSTVCEELLSVIEKGPDPLLPLTNGPLNLGWDRWFEGPNGGEGCRCLIL
modifications: left off: His6, N-terminal, state not stated | His6, end not stated, state not stated
In the case of B5, the Kd was ~2000 nM and 2000 nM in assay [1] (read-out: Kd, Gβγ binding to AtGPA1, Gα in GDP state, MST, Gα in GDP state); ~700 nM and 700 nM in assay [2] (read-out: Kd, Gβγ binding to XLG2 Gα domain, MST, column head: Gα in GDP state).
